The values that follow come from patent US8609608B2, “Antimicrobial peptides” (C3 Jian, Inc., priority 2007, dated 2013).

Where no end group is shown, it is not given here.

The subject of one assay is V. atypica PK1910. Format: cell-based, Veillonella atypica. How it is done: (§1) S. mutans clinical isolates UA140 (32), UA159 (1), T8 (33), ATCC 25175, GS5 (Kuramitsu and Ingersoll (1977) Infect Immun., 17: 330-337), and all gram-positive strains listed below (see Table 9) were grown under anaerobic conditions in brain heart infusion or Todd-Hewitt (TH) broth (Difco) overnight at 37° C. prior to use (Eckert et al. (2006) Antimicrob. Agents Chemother. 50: 3651-3657). Veillonella atypica PK1910 was grown in Veillonella medium (Egland et al. (2004) Proc. Natl. Acad. Sci., USA, 101: 16917-16922). All strains were grown in an anaerobic atmosphere of 80% N2, 10% CO2, and 10% H2.
(§2) Antibacterial growth inhibition assays were performed using sterile 96-well plates in a final volume of 100 μl, TH or Veillonella medium as described previously (Qi et al. (2005) FEMS Microbial Lett. 251: 321-326). Briefly, bacterial cells were grown overnight to an optical density at 600 nm of 0.75 to 0.8 (corresponding to 1×10^8 CFU/ml) and then diluted to 1×10^5 CFU/ml in broth and aliquoted onto plates. An appropriate volume of peptide stock solution (5 to 20 mg/ml, in water or methanol, depending on solubility) was then added to the first column of the plate to give 500 μg/ml or 512 μg/ml, followed by serial 1:2 dilutions across the plate to give wells containing peptides ranging from 500 to 1.95 μg/ml or 512 to 2 μg/ml. Methanol alone was also added to control for the effects of the solvent. The plates were then incubated at 37° C. under anaerobic conditions for 16 to 20 h without shaking, and the MIC was determined as the concentration of peptide present in the last clear well after visual inspection. Up to 5% (vol/vol) methanol was found not to be antimicrobial (data not shown). MICs were determined in triplicate for all bacteria.

The test system of another assay is S. mitis ATCC 903. It counts as cell-based, Streptococcus mitis. How it is done:
as §1, §2

In assay [1] the test system is clinical isolates of S. mutans. Format: cell-based, Streptococcus mutans. To be noted: clinical isolates of. A digest of the protocol: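 Bacteria grown anaerobically (80% N2, 10% CO2, 10% H2) to 1×10^8 CFU/ml were diluted to 1×10^5 CFU/ml in Todd-Hewitt or Veillonella medium. Peptide was added in 1:2 dilutions (500–1.95 or 512–2 μg/ml) and plates were incubated 16–20 h at 37° C. MIC was the last clear well by eye, in triplicate.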

Another assay relates to S. sanguinis NY101. It counts as cell-based, Streptococcus sanguinis. How it is done:
as §1, §2

In the next assay the test system is S. mutans UA159. Kind of assay: Killing kinetics (time-kill assay). To be noted: peptide 25 μg/ml; for TC, time required to kill 3 log10 of recoverable CFU/ml: UA159. Format: cell-based, Streptococcus mutans. As to the method: The determination of killing kinetics for fusion and parental peptides was conducted essentially as described previously (Eckert et al. (2006) Antimicrob. Agents Chemother. 50: 1480-1488). Briefly, medium-diluted overnight UA159 cultures (0.5×10^6 to 1×10^6 CFU/ml) were challenged with peptide at a concentration of 25 μg/ml, and at the indicated time intervals (“0 min” indicates untreated samples), a 10-μL aliquot was removed and the surviving CFU were rescued by dilution (1:50) into growth medium and then spread on TH agar plates for quantitation. […] Kinetics were determined by recording the average number of surviving CFU/ml versus incubation time in the presence of peptide (all assays were independently repeated three to five times). For Table 8, time to bactericidal killing (TC) values were defined as the time required for the level of surviving CFU/ml from peptide-treated cultures to fall 3 log10 below the levels of recovered S. mutans CFU/ml from untreated samples.

The test system of the next assay is L. casei ATCC 4646. Format: cell-based, Lactobacillus casei. As to the method:
as §1, §2

For the next assay, the system named is S. gordonii Challis DL1. It counts as cell-based, Streptococcus gordonii. As to the method: as §1, §2

As a reminder, the MIC is the least concentration at which growth counts as inhibited. Low values mean inhibition by little substance, high ones a need for much substance. As for RRRWWWF-NH2 [Peptide 2C-3, RRRWWWF*], in the assay on V. atypica PK1910, the “MIC V. atypica PK1910” value was 64 µg/mL. In addition, in the assay with S. mitis ATCC 903, the “MIC S. mitis ATCC 903” value was determined as 32 µg/mL. The MIC in assay [1] lay in the range of 4 to 8 µg/mL. The “MIC S. sanguinis NY101” value against S. sanguinis NY101 came out at 16 µg/mL. In the assay with S. mutans UA159, the “TC, time required to kill 3 log10 of recoverable CFU/ml” value (from here on “TC, time required to kill 3 log10”) was 220 min. Further, the “MIC L. casei ATCC 4646” value in the assay with L. casei ATCC 4646 is 16 µg/mL. Moreover, the “MIC S. gordonii Challis DL1” value against S. gordonii Challis DL1 was determined as 32 µg/mL.
For “RRRWWWFPSGSPRRRWWWF-NH2 [FRW-4, RRRWWWF-PSGSP-RRRWWWF*]”, the “MIC (fusion library peptides)” value in assay [1] worked out at 32 µg/mL. For the same substance, in the assay with S. mutans UA159, the “TC, time required to kill 3 log10” value amounted to 420 min.
For the substance “RWRRLLKKLHHLLHGGGIKQLLHFFQRF-NH2 [FBα-21, RWRRLLKKLHHLLH-GGG-IKQLLHFFQRF*]”, in assay [1], the “MIC (fusion library peptides)” value is 16 µg/mL. Moreover, the “fewer CFU/ml recovered from fusion peptide-treated cultures than from parental peptide-treated samples” value in the assay on S. mutans UA159 (after 30 min) is recorded as “more than 2 log10”.
Take “RWRWRWFASASARWRWRWF-NH2 [FRW-9, RWRWRWF-ASASA-RWRWRWF*]”: in assay [1], the “MIC (fusion library peptides)” value was 16 µg/mL. Moreover, the “TC, time required to kill 3 log10” value with S. mutans UA159 was found to be 45 min.
In the case of “RWRWRWFGGGRWRWRWF-NH2 [FRW-11, RWRWRWF-GGG-RWRWRWF*]”, in assay [1], the “MIC (fusion library peptides)” value is 16 µg/mL. Besides, the “TC, time required to kill 3 log10” value in the assay with S. mutans UA159 turned out to be 90 min.
Regarding “RWRWRWFPSGSPRWRWRWF-NH2 [FRW-10, RWRWRWF-PSGSP-RWRWRWF*]”, the “MIC (fusion library peptides)” value in assay [1] is 32 µg/mL. Also, in the assay with S. mutans UA159, the “TC, time required to kill 3 log10” value was 270 min.
Turning to “RWRWRWFRWRWRWF-NH2 [FRW-8, RWRWRWFRWRWRWF*]”, the “MIC (fusion library peptides)” value in assay [1] amounted to 16 µg/mL. Besides, in the assay on S. mutans UA159, the “TC, time required to kill 3 log10” value was 50 min.
